Measurements published in patent US20260035339A1, “TETRAHYDRONAPHTHALENE DERIVATIVE” (ATRANSEN PHARMA LTD., priority 2022, published 2026).

How the values were obtained:
human LAT1 = human LAT1 (Homo sapiens, UniProt Q01650); assay: [14C]L-leucine uptake inhibition test using human-LAT1 stably expressing HEK293 cell line; assay type: cell-based; parameters: having full-length cDNA of human LAT1 or LAT2 inserted under a promoter of CMV; expressed in transfected cells; key to Assay Data: degree of [14C]L-leucine uptake inhibition compared with BCH: a test compound having a higher inhibitory effect than BCH is denoted by A; a test compound having the same inhibitory effect as BCH is denoted by B; a test compound having a lower inhibitory effect than BCH is denoted by C; details: for Assay Data: degree of [14C]L-leucine uptake inhibition compared with BCH: compound (racemic form) and BCH at 0.1, 1.0, 10 μM, 1 μM [14C]L-leucine, 1 minute, Na+-free HBSS
Chain of human LAT1 (Q01650 whole entry): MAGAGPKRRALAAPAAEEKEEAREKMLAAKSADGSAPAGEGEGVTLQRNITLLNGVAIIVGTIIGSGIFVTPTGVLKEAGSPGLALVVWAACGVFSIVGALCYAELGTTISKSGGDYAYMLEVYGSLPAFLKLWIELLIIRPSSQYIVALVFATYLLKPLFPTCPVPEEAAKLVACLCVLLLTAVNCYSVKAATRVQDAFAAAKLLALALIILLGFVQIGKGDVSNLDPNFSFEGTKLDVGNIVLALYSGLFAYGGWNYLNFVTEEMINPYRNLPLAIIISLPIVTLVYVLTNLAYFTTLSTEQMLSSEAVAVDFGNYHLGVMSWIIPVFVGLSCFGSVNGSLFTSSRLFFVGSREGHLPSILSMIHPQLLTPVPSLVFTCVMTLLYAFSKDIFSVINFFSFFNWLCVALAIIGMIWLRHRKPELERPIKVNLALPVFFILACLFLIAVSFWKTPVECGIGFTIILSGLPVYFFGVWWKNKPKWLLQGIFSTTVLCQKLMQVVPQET
Chain of human LAT1 (P08195 102-630 partner): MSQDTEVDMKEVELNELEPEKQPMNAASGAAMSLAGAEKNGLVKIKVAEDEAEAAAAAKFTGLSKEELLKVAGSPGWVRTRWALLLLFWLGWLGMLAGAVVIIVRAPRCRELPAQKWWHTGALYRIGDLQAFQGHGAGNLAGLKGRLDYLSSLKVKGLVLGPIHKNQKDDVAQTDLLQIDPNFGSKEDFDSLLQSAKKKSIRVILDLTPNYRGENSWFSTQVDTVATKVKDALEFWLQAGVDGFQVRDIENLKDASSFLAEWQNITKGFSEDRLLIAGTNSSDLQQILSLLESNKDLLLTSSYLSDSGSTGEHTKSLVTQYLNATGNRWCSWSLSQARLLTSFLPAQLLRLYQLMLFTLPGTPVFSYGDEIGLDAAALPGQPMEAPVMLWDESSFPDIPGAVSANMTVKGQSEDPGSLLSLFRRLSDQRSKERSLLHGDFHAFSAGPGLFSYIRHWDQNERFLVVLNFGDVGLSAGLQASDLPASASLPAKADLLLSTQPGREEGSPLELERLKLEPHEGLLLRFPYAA
Description: HEK293 cells stably expressing human LAT1 and LAT2 were produced, respectively.
A shuttle vector DNA (LAT1: pcDNA3.1(+) -hLAT1, LAT2: pcDNA3.1(+) -hLAT2; expression vector pcDNA3.1 (+) was produced by Invitrogen Corp.) having ampicillin and neomycin resistance markers and having full-length cDNA of human LAT1 or LAT2 inserted under a promoter of CMV (cytomegalovirus) was constructed. This vector was transfected into the HEK293 cells by a method using Lipofectamine (registered trademark) 2000 (Invitrogen Corp.) according to the manufacturer's instructions. Thereafter, stably expressing cell clones of transgene were selected by a limiting dilution method in the presence of 0.9 mg/mL of Geneticin (registered trademark), and among the obtained cell clones, cell clones having a high uptake of [^14C]L-leucine and maintaining stable expression even after 10 passages were obtained. These cells were used for evaluating affinity and selectivity for LAT1 and LAT2.
1-1. It has been confirmed that LAT1 is responsible for L-leucine uptake in the absence of sodium ions in the human-LAT1 stably expressing HEK293 cell line. The human-LAT1 stably expressing HEK293 cell line was seeded in a 24-well plate at 1×10^5 Cell/Well, and the [^14C]L-leucine uptake inhibition test using the compound was performed after 48 hours. After the medium was removed and the cells were washed with Hank's balanced salt solution (Na^+-free HBSS) not containing sodium ions, the cells were cultured in Na^+-free HBSS for 10 minutes. Thereafter, 1 μM of [^14C]L-leucine was taken up in Na^+-free HBSS in the presence of a test compound (0.1, 1.0, 10, 0 μM in each case), which is a racemic form, for 1 minute, and then the cells were washed three times with ice-cooled Na^+-free HBSS. To the well, 500 μL of 1 M NaOH was added, and after 30 minutes, the cells were lysed, and the cell lysate was collected. The amount of [^14C]L-leucine in the cell lysate was determined using a liquid scintillator. The amount of protein in the cell lysate was measured using BCA Assay Kit (Thermofisher Scientific), and the uptake amount of [^14C]L-leucine per 1 mg of protein in the cell per minute was calculated.
The degree of LAT1 inhibition of the compound obtained in the present invention was compared with BCH (BCH, 2-aminobicyclo-(2,2,1)-heptane-2-carboxylic acid), which is an existing LAT1 inhibitor. In the [^14C]L-leucine uptake inhibition test described above, the degrees of inhibition of [^14C]L-leucine uptake inhibition using the compound (racemic form) obtained in Examples and BCH (0.1, 1.0, 10, 0 μM for both) were compared. […] In the table, a test compound having a higher inhibitory effect than BCH is denoted by A, a test compound having the same inhibitory effect as BCH is denoted by B, and a test compound having a lower inhibitory effect than BCH is denoted by C.

[1] = tested on: Mouse colorectal cancer-derived CT26 cells; assay: Cell proliferation inhibitory effect using mouse colorectal cancer cells (CCK-8 assay); assay type: cell-based; details: 72 hours compound treatment, read-out: Evaluation of IC50 (proliferation inhibition rate of 50%)
Method: Mouse colorectal cancer-derived CT26 cells were adjusted to […], seeded in a 96-well plate at 1000 cells/well, and cultured in a 10% fetal bovine serum-added RPMI 1640 medium at 5% CO2 and 37° C. The culture medium was changed 24 hours after the start of the culture, and the medium containing the compound of Example was replaced to examine the action of the compound on cell proliferation. As the compound, a concentration of 0.01, 0.03, 0.1, 0.3, 1, 3, 10, or 30 μM was used. As a control, the cells were cultured in a medium containing no compound. The number of cells was evaluated by CCK-8 assay (Cell Counting Kit-8, DOJINDO LABORATORIES) 72 hours after the start of the compound treatment, and the compound concentration (IC50 value) giving a proliferation inhibition rate of 50% as compared with the control was calculated.

SMILES	[14C]L-leucine uptake inhibition via LAT1 (in words) (human LAT1; 0.1 to 10 μM)	Assay Data: degree of [14C]L-leucine uptake inhibition compared with BCH (human LAT1)	LAT1 inhibitory effect, compounds singled out (in words) (human LAT1; same test as Table 1)	IC50 [1]
NC1(C(=O)O)CC2CCC1C2 (stereo not shown) [BCH, 2-aminobicyclo-(2,2,1)-heptane-2-carboxylic acid, reference compound]	weak	–	–	–
Cl.NC1(C(=O)O)CCc2ccc(Oc3cccc(-c4ccccc4)c3)cc2C1 (stereo not shown) [Example 1-2, 7-([1,1′-biphenyl]-3-yloxy)-2-carboxy-1,2,3,4-tetrahydronaphthalene-2-aminium chloride]	–	A	–	–
Cl.NC1(C(=O)O)CCc2ccc(Oc3ccc4occc4c3)cc2C1 (stereo not shown) [Example 1-3, 7-(benzofuran-5-yloxy)-2-carboxy-1,2,3,4-tetrahydronaphthalene-2-aminium chloride]	–	A	–	–
Cl.NC1(C(=O)O)CCc2ccc(Oc3cccc4ccccc34)cc2C1 (stereo not shown) [Example 1-4, 2-carboxy-7-(naphthalene-1-yloxy)-1,2,3,4-tetrahydronaphthalene-2-aminium chloride]	–	A	particularly remarkable effects	≤ 900 nM
COc1ccc2ccc(Oc3ccc4c(c3)CC(N)(C(=O)O)CC4)cc2c1.Cl (stereo not shown) [Example 1-5, 2-carboxy-7-((7-methoxynaphthalene-2-yl)oxy)-1,2,3,4-tetrahydronaphthalene-2-aminium chloride]	–	A	–	–
CN(C)c1ccc2cc(Oc3ccc4c(c3)CC(N)(C(=O)O)CC4)ccc2c1 (stereo not shown) [Example 1-6, 2-amino-7-((6-(dimethylamino)naphthalene-2-yl)oxy)-1,2,3,4-tetrahydronaphthalene-2-carboxylic acid]	–	A	–	–
CN(C)c1ccc2ccc(Oc3ccc4c(c3)CC(N)(C(=O)O)CC4)cc2c1 (stereo not shown) [Example 1-7, 2-amino-7-((7-(dimethylamino)naphthalene-2-yl)oxy)-1,2,3,4-tetrahydronaphthalene-2-carboxylic acid]	–	A	–	–
NC1(C(=O)O)CCc2ccc(Oc3ccc4ncccc4c3)cc2C1 (stereo not shown) [Example 1-8, 2-amino-7-(quinoline-6-yloxy)-1,2,3,4-tetrahydronaphthalene-2-carboxylic acid]	–	A	–	–
NC1(C(=O)O)CCc2ccc(Oc3cccc(-c4ccccn4)c3)cc2C1 (stereo not shown) [Example 1-9, 2-amino-7-(3-(pyridine-2-yl)phenoxy)-1,2,3,4-tetrahydronaphthalene-2-carboxylic acid]	–	A	–	–
Cl.NC1(C(=O)O)CCc2ccc(Oc3cccc(-c4ccc(Cl)cc4)c3)cc2C1 (stereo not shown) [Example 1-10, 2-carboxy-7-((4′-chloro-[1,1′-biphenyl]-3-yl)oxy)-1,2,3,4-tetrahydronaphthalene-2-aminium chloride]	–	A	–	–
Cl.NC1(C(=O)O)CCc2ccc(Oc3cccc(-c4cccc(Cl)c4)c3)cc2C1 (stereo not shown) [Example 1-11, 2-carboxy-7-((3′-chloro-[1,1′-biphenyl]-3-yl)oxy)-1,2,3,4-tetrahydronaphthalene-2-aminium chloride]	–	A	–	–
Cl.NC1(C(=O)O)CCc2ccc(Oc3ccc(-c4ccccc4)cc3)cc2C1 (stereo not shown) [Example 1-12, 7-([1,1′-biphenyl]-4-yloxy)-2-carboxy-1,2,3,4-tetrahydronaphthalene-2-aminium chloride]	–	A	–	–
Cl.NC1(C(=O)O)CCc2ccc(Oc3cccc(-c4ccc5ccccc5c4)c3)cc2C1 (stereo not shown) [Example 1-13, 2-carboxy-7-(3-(naphthalene-2-yl)phenoxy)-1,2,3,4-tetrahydronaphthalene-2-aminium chloride]	–	A	–	–
Cl.NC1(C(=O)O)CCc2ccc(Oc3ccccc3-c3ccccc3)cc2C1 (stereo not shown) [Example 1-16, 7-([1,1′-biphenyl]-2-yloxy)-2-carboxy-1,2,3,4-tetrahydronaphthalene-2-aminium chloride]	–	A	–	≤ 900 nM
Cl.Cl.NC1(C(=O)O)CCc2ccc(Oc3ccccc3-c3ccccn3)cc2C1 (stereo not shown) [Example 1-32, 2-(2-((7-ammonio-7-carboxy-5,6,7,8-tetrahydronaphthalen-2-yl)oxy)phenyl) pyridin-1-ium chloride]	–	A	–	900 to 5000 nM
COc1cccc(-c2ccccc2Oc2ccc3c(c2)CC(N)(C(=O)O)CC3)c1.Cl (stereo not shown) [Example 1-39, 2-carboxy-7-((3′-methoxy-[1,1′-biphenyl]-2-yl)oxy)-1,2,3,4-tetrahydronaphthalene-2-aminium chloride]	–	A	–	≤ 900 nM
CCc1cccc(-c2ccccc2Oc2ccc3c(c2)CC(N)(C(=O)O)CC3)c1.Cl (stereo not shown) [Example 1-47, 2-carboxy-7-((3′-ethyl-[1,1′-biphenyl]-2-yl)oxy)-1,2,3,4-tetrahydronaphthalene-2-aminium chloride]	–	A	–	≤ 900 nM
Cl.NC1(C(=O)O)CCc2ccc(Oc3ccccc3-c3ccc(F)c(F)c3)cc2C1 (stereo not shown) [Example 1-56, 2-carboxy-7-((3′,4′-Difluoro-[1,1′-Biphenyl]-2-yl)oxy)-1,2,3,4-tetrahydronaphthalene-2-aminium chloride]	–	A	–	≤ 900 nM
COc1cccc2cccc(Oc3ccc4c(c3)CC(N)(C(=O)O)CC4)c12.Cl (stereo not shown) [Example 1-60, 2-carboxy-7-((8-methoxynaphthalen-1-yl)oxy)-1,2,3,4-tetrahydronaphthalen-2-aminium chloride]	–	A	–	≤ 900 nM
Cl.NC1(C(=O)O)CCc2ccc(Oc3cccc4cccc(-c5ccccc5)c34)cc2C1 (stereo not shown) [Example 1-61, 2-carboxy-7-((8-phenylnaphthalen-1-yl)oxy)-1,2,3,4-tetrahydronaphthalen-2-aminium chloride]	–	A	–	≤ 900 nM
Cl.NC1(C(=O)O)CCc2ccc(Oc3ccccc3-c3c(F)c(F)c(F)c(F)c3F)cc2C1 (stereo not shown) [Example 1-64, 2-carboxy-7-((2′,3′,4′,5′,6′-pentafluoro-[1,1′-biphenyl]-2-yl)oxy)-1,2,3,4-tetrahydronaphthalene-2-aminium chloride]	–	A	–	≤ 900 nM
NC1(C(=O)O)CCc2ccc(Oc3ccc([N+](=O)[O-])cc3)cc2C1 (stereo not shown) [Example 1-68, 2-carboxy-7-(4-nitrophenoxy)-1,2,3,4-tetrahydronaphthalene-2-aminium chloride]	–	–	–	900 to 5000 nM
Cl.NC1(C(=O)O)CCc2cc(Oc3ccc4ccccc4c3)ccc2C1 (stereo not shown) [Example 2-1, 2-carboxy-6-(naphthalene-2-yloxy)-1,2,3,4-tetrahydronaphthalene-2-aminium chloride]	–	A	–	–
NC1(C(=O)O)CCc2cc(Oc3ccc(-c4cccnc4)cc3)ccc2C1 (stereo not shown) [Example 2-2, 3-(4-((6-ammonio-6-carboxy-5,6,7,8-tetrahydronaphthalene-2-yl)oxy)phenyl) pyridine-1-ium chloride]	–	B	–	–
